Experimental data reported in patent US20240117303A1, “METHODS AND COMPOSITIONS FOR GENERATING HUMAN MIDBRAIN DOPAMINERGIC NEURONS FROM NEURAL PROGENITOR CELLS” (Trailhead Biosystems Inc., priority 2022, published 2024).
“Also recorded” adds a separate entry of the source.

Assays:
Format in all cases: cell-based, human
[1] = tested on: stage 1 neural stem cells; test: HD-DoE 12-factor experiment for stage 2 recipe (second model, FIG. 8-10, 13)
[2] = tested on: stage 2 neural progenitors; test: HD-DoE another 12-factor model for stage 3 recipe (FIG. 24, 25, 30); settings: for level of MSX1 in absence of the factor / level of SOX6 in absence of the factor: AZD3147, DBZ, PD0325901 and BMP7 set; for level of MSX1 in absence of the factor: 45 with all factors; for level of SOX6 in absence of the factor: 185 with all factors; for impact on expression of MSX1 / impact on expression of SOX6: dynamic profile, 12 effectors; for factor contribution: model optimized for SOX6, positive impact
Description: In another 12-factor model, additional factors including Activin A, Takinib (TAK inhibitor), FGF8b, AZD3147 (mTOR antagonist), MHY1485 (mTOR agonist), and Yhhu-3792 (Notch agonist) were tested. Some of the factors from previous model (BMP7, A 8301, LDN193189, PD0325901, MK2206 and DBZ) were also included.
(§1) To assess the impact of elimination of each validated factor identified in Example 5 for the stage 3 and stage 4 recipes, we used dynamic profile analysis and compared the expression level of genes of interest in absence of each finalized factor while others are present.
In another model, to determine the combinatorial effect of AZD3147 and DBZ on gene profile of cells in presence of other factors of final recipe, the expression levels of SOX6 and MSX1 were compared in the absence of each of the factors in the presence of PD0325901 and BMP7. These two compounds were the only final compounds that were included in inputs of this experimental model The results are shown in FIG. 30A and FIG. 30B. […] When DBZ was removed, the level of SOX6 and MSX1 both decreased to 140 and 35, respectively.

MB neural progenitors = test: HD-DoE 8-factor model, DBZ and AZD3147 (FIG. 26); settings: dynamic profile
[3] = tested on: stage 2 neural progenitors; test: HD-DoE 12-factor model for stage 3 recipe (FIG. 19-23, 29); settings: model optimized for maximum expression of KCNJ6; positive regulators
stage 3 immature neurons = test: HD-DoE 8-factor experiment for stage 4 recipe (FIG. 27, 28, 31)
Description: To further differentiate the cells to a mature neuronal identity, additional HD-DoE experiments were performed on the cells that were cultured in stage 1, stage 2 and stage 3 differentiation media. After 4 days, gene expression of cells in different combinatorial conditions were investigated. At this time, we focused on maximal expression of more mature dopaminergic genes such as NR4A2, PITX3 and TH (Tiklová et al. (2020) Nat Commun. 11:2434; Fiorenzano et al. (2021) Nat Commun., 12:7302). In one model, cells were treated with a combinatorial matrix with eight inputs including CHIR99021, BDNF, GDNF, Rosiglitazone, GW7647, DBZ and heparin.
as §1
In the stage 4 recipe, each of six finalized factors were excluded while other factors were present and the expression levels of NR4A2 and PITX3 were assessed compared to the presence of all factors.

| Structure (SMILES) | impact on expression of FOXA2 ([1]; dynamic profile, 12 effectors) | impact on expression of LMX1A ([1]; dynamic profile, 12 effectors) | factor contribution ([1]; model optimized for maximum expression of FOXA2, positive impact) | level of FOXA2 in absence of the factor ([1]; stage 2 recipe, second experiment model) | level of LMX1A in absence of the factor ([1]; stage 2 recipe, second experiment model, 4000 with all factors) | level of MSX1 in absence of the factor [2] | level of SOX6 in absence of the factor [2] | impact on expression of MSX1 [2] | impact on expression of SOX6 [2] | factor contribution [2] | impact on expression of CORIN, KCNJ6, SOX6 and MSX1 (MB neural progenitors) | factor contribution [3] | impact on expression of NR4A2 (stage 3 immature neurons; 8-factor model / dynamic profile) | expression level of PITX3 in absence of the factor (stage 3 immature neurons; stage 4 recipe, other factors present, 40 with all factors) | expression level of NR4A2 in absence of the factor (stage 3 immature neurons; stage 4 recipe, other factors present, 400 with all factors) |
| --- | --- | --- | --- | --- | --- | --- | --- | --- | --- | --- | --- | --- | --- | --- | --- |
| C[C@H]1COCCN1c1cc(C2(S(=O)(=O)C3CC3)CC2)nc(-c2ccc(NC(=S)NCCO)cc2)n1 [AZD 3147] | did not reduce | significant positive impact | 10.9 | almost no effect | 2000 | did not change | 150 | did not show any significant impact | positive impact | 20.2 | positive regulatory effect; also recorded: Positive impact | – | – | – | – |
| C[C@H](NC(=O)Cc1cc(F)cc(F)c1)C(=O)N[C@@H]1C(=O)N(C)c2ccccc2-c2ccccc21 [DBZ] | – | – | – | – | – | 35 | 140 | did not show any significant impact | positive impact | 21.5 | positive regulatory effect; also recorded: Positive impact | low factor contributions | positive regulatory impact | 30 | 200 |
